Measurements reported in patent publication EP1724268A1, “COMPOUND HAVING TGF-BETA INHIBITORY ACTIVITY AND PHARMACEUTICAL COMPOSITION CONTAINING SAME” (KIRIN BEER KABUSHIKI KAISHA, priority 2004, dated 2005).
Like-named read-outs stand apart in the source and are kept apart here.

How the values were obtained:
TGFβ signal = TGFβ signal inhibitory activity, (SBE)4-Luc reporter in A549 cells (Test Examples 1A and 1B); type: cell-based, human; details: Homo sapiens, A549, read-out: TGFβ inhibition rate, %
Summary of the method: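 Compounds at 3 µM and 10 µM (some 1 µM) were added with 2 ng/ml TGFβ-1 to A549 cells stably expressing an SBE-driven luciferase, then cultured 4 hr. Chemiluminescent luciferase signal gave % inhibition versus TGFβ-alone and no-TGFβ controls.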

A549 cells = assay: Cell growth inhibitory activity using A549 cells (Test Example 6); type: cell-based, Human; details: for inhibition at 30 µM: Homo sapiens, A549, compound 30 µM, 5% serum, 40 hr, counting kit-8, read-out: Cell growth inhibition rate (%); for inhibitory activity against cell growth or BMP4 signals: as compared with Example 261 or Example 269 described in WO 03/00660
Description: Human lung cancer epithelial cells (A549) (available from ATCC) were suspended to a concentration of 3 × 10^4/ml in a DMEM/F12 medium containing 10%FCS, and the suspension was inoculated in 100 µl portions in wells of a 96-well plate. On the following day, a stock solution of the test compound which had been adjusted to 10 mM with DMSO was adjusted with a serum-free DMEM/F12 medium to a dose (60 µM) which was twice the evaluation concentration. After removing the medium inoculated in the 96 wells on the previous day, the solution was added in 50 µl portions to the plate. Next, a DMEM/F12 medium containing 10% serum was added in 50 µl portions to the wells, followed by culturing at 37°C for 40 hr. The final concentration of the serum and the concentration of the evaluation compound were 5% and 30 µM, respectively. The compounds according to the present invention synthesized in the working example were used as the test compound. […]
After 40 hr, the culture was removed, and 100 µl of a solution prepared by diluting counting kit-8 (purchased from Dojindo) with a serum-free F12 medium by 10 times was added, followed by culturing at 37°C for 20 to 30 min. After the confirmation of suitable color development, the absorbance at 450 nm was measured with ARVO (purchased from Wallach Bethold Japan). The cell growth inhibition in the test compound added wells were determined by presuming the absorbance value in the test compound-free wells to be 0% and the absorbance value in the cell-free wells to be 100%.

[1] = test compound 3 µM, TGFβ-1 2 ng/ml, 4 hr, Table 1A
[2] = test compound 10 µM, TGFβ-1 2 ng/ml, 4 hr, Table 1A
[3] = 3 µM, compounds of Reference Examples (Test Example 1B)
[4] = 10 µM, compounds of Reference Examples (Test Example 1B)
[5] = test compound 3 µM, Reference Examples, Table 1B
[6] = test compound 10 µM, Reference Examples, Table 1B

SMILES	inhibition at 3 µM (TGFβ signal; [1]) [%]	inhibition at 10 µM (TGFβ signal; [2]) [%]	inhibition at 3 µM (TGFβ signal; [3]) [%]	inhibition at 10 µM (TGFβ signal; [4]) [%]	other results
Cc1ccc(Oc2ccnc3ccc(OCCO)cc23)c(-c2ccccn2)n1 [Compound 205, 2-[4-(6-Methyl-[2,2']bipyridyl-3-yloxy)-quinolin-6-yloxy]-ethanol]	98				inhibition at 30 µM (A549 cells): 9%; inhibitory activity against cell growth or BMP4 signals (A549 cells): reduced inhibitory activity
CCc1ccc(Oc2ccnc3ccc(OC(C)=O)cc23)c(-c2ccccn2)n1 [Compound 186, 4-(6-Ethyl-[2,2']bipyridinyl-3-yloxy)-quinolin-6-ylacetate]	100	100			inhibition at 30 µM (A549 cells): -2%
CCc1ccc(Oc2ccnc3cc(C(N)=O)c(OC)cc23)c(-c2ccccn2)n1 [Compound 179, 4-(6-Ethyl-[2,2']bipyridinyl-3-yloxy)-6-methoxy-quinoline-7-carboxylic acid amide]	100	100			inhibition at 30 µM (A549 cells): -3%; inhibitory activity against cell growth or BMP4 signals (A549 cells): reduced inhibitory activity
COc1cc2nccc(Oc3ccc(C)nc3C(=O)c3cccc(C)n3)c2cc1OC [r221]			71	98	
COc1cc2c(Oc3cc(C)c(C)nc3-c3ccccn3)ccnc2cc1OCCCCO [Compound r445]			99		
COc1cc2c(Oc3cc(C)c(C)nc3-c3ccccc3)ccnc2cc1OCCO [Compound r333]			100		
Cc1ccc(-c2ccc3c(Oc4cc(C)c(C)nc4-c4ccccn4)ccnc3c2)cc1 [Compound 20, 5,6-Dimethyl-3-(7-p-tolyl-quinolin-4-yloxy)-[2,2']bipyridine]	90	100			
COc1cc2nccc(Nc3cnc4ccccc4c3)c2cc1OC [r418]			46	73	
COc1cc2nccc(Oc3ccc(C)cc3Nc3ccccc3)c2cc1OC [Compound r14, N-[2-[(6,7-Dimethoxy-4-quinolyl)oxy]-5-methylphenyl]-N-phenylamine]					inhibition at 3 µM (TGFβ signal; [5]): 15%; inhibition at 10 µM (TGFβ signal; [6]): 64%
CCCOC(=O)c1cc2ccccc2cc1Oc1ccnc2cc(OCCCCl)c(OC)cc12 [Compound r325]			19	60	
COc1ccc2nccc(Oc3cc4cccnc4nc3-c3ccccc3)c2n1 [Compound 128, 2-Methoxy-8-(2-phenyl-[1,8]naphthyridin-3-yloxy)-[1,5]naphthyridine]	93	100			
COC(=O)c1cc2nccc(Oc3cc4cccnc4nc3-c3ccccc3)c2cc1OC [Compound 116, Methyl 6-methoxy-4-(2-phenyl-[1,8]naphthyridin-3-yloxy)-quinoline-7-carboxylate]	99	100			
COc1ccc(Oc2ccnc3cc(OC)c(OC)cc23)c(C(O)Cc2ccccn2)c1 (stereo not drawn) [r166]			24	67	
COc1cc2nccc(Oc3ccc(C)nc3-c3ccc(Cl)cc3)c2cc1OC [Compound r252]			16	78	
CCc1ccc(Oc2ccnc3ccc(OCCOC(=O)C(C)(C)CC)cc23)c(-c2ncccn2)n1 [Compound 224, 2-[4-(6-Ethyl-2-pyrimidin-2-yl-pyridin-3-yloxy)-quinolin-6-yloxy]-ethyl 2,2-dimethyl-butanoate]	95	100			
COc1cc2nccc(Oc3ccc(C)cc3Cl)c2cc1OC [Compound r3]					inhibition at 3 µM (TGFβ signal; [5]): 0%; inhibition at 10 µM (TGFβ signal; [6]): 75%
COc1cc2nccc(Oc3ccc(C)c(C)c3)c2cc1OC [r15]					inhibition at 3 µM (TGFβ signal; [5]): 41%; inhibition at 10 µM (TGFβ signal; [6]): 84%
Cc1cc(Oc2ccnc3cc(-c4cccnc4)ccc23)c(-c2ccccn2)nc1C [Compound 18, 5,6-Dimethyl-3-(7-pyridin-3-yl-quinolin-4-yloxy)-[2,2']bipyridine]	95	100			
COc1cc2nccc(Oc3cc4c(nc3-c3ccccc3)NCCC4)c2cc1C(=O)NCc1ccccc1 [Compound 99, 7-Methoxy-4-(2-phenyl-5,6,7,8-tetrahydro-[1,8]naphthyridin-3-yloxy)-quinoline-6-carboxylate benzylamide]	76	92			

SMILES	inhibition at 3 µM (TGFβ signal; [1]) [%]	inhibition at 10 µM (TGFβ signal; [2]) [%]	inhibition at 3 µM (TGFβ signal; [3]) [%]	inhibition at 10 µM (TGFβ signal; [4]) [%]	other results
COc1cc2nccc(Oc3ccc(C)cc3C(C)=O)c2cc1OC [Compound r35]					inhibition at 3 µM (TGFβ signal; [5]): 49%; inhibition at 10 µM (TGFβ signal; [6]): 89%
COc1cc2nccc(Oc3ccc(C)nc3-c3ncccn3)c2cc1OC [Compound 188, 4-(6-Methyl-2-pyrimidin-2-yl-pyridin-3-yloxy)-6,7-dimethoxy-quinoline]	100	100			
COc1cc2nccc(Oc3cc4ccccc4nc3C(=O)c3ccccc3)c2cc1OC [r279]			98	100	
COc1cc2nccc(Oc3cc4ccccc4nc3-c3ccccc3)c2cc1OC [Compound r283, 6,7-Dimethoxy-4-(2-phenyl-quinolin-3-yloxy)-quinoline]			99	100	
CC=Cc1ccccc1Oc1ccnc2cc(OC)c(OC)cc12 [Compound r2]					inhibition at 3 µM (TGFβ signal; [5]): 13%; inhibition at 10 µM (TGFβ signal; [6]): 88%
Clc1ccc2ncnc(Oc3cc4cccnc4nc3-c3ccccc3)c2c1 [Compound 68, 6-Chloro-4-(2-phenyl-[1,8]naphthyridin-3-yloxy)-quinazoline]	43	91			
CNC(=O)c1cc(OC)ccc1Oc1ccnc2cc(OC)c(OC)cc12 [Compound r110]					inhibition at 3 µM (TGFβ signal; [5]): 55%; inhibition at 10 µM (TGFβ signal; [6]): 93%
CCOC(=O)/C(C)=C/c1cc(OC)ccc1Oc1ccnc2cc(OC)c(OC)cc12 [r8]					inhibition at 3 µM (TGFβ signal; [5]): 10%; inhibition at 10 µM (TGFβ signal; [6]): 59%
COc1cc2c(Oc3cc4cnccc4nc3C)ccnc2cc1OCCO [Compound r407]			71	97	
Cc1cc(Oc2ccnc3cc(-c4cccc(N)c4)ccc23)c(-c2ccccn2)nc1C [Compound 21, 3-[4-(5,6-Dimethyl-[2,2']bipyridin-3-yloxy)-quinolin-7-yl]-phenylamine]	99	100			
COc1cc2c(Oc3cc(C)c(C)cc3C(C)=O)ccnc2cc1OCc1ccccc1 [Compound r313]			56	94	
COc1cc2nccc(Oc3cc4cnccc4nc3C)c2cc1OC [r311]			53	90	
COc1cc2c(Oc3cc4ccccc4nc3C(C)=O)ccnc2cc1OCCO [Compound r392]			93	100	
COc1cc2nccc(Oc3ccc(C)nc3C(O)c3ccccc3)c2cc1OC (stereo not drawn) [r217]			91	100	
COc1ccc(Oc2ccnc3cc(OC)c(OC)cc23)c(C(=O)NC(C)C)c1 [Compound r111]					inhibition at 3 µM (TGFβ signal; [5]): 29%; inhibition at 10 µM (TGFβ signal; [6]): 92%
COc1cc2c(Oc3cc(C)c(C)cc3C(C)=O)ccnc2cc1OCCCn1ccnc1 [Compound r321]			100	100	
COc1cc2c(Oc3cc(C)c(C)cc3C(C)=O)ccnc2cc1OCCCCl [Compound r318]			82	100	
Cc1cc(Oc2ccnc3cccnc23)c(-c2ccccn2)nc1C [Compound 30, 4-(5,6-Dimethyl-[2,2']bipyridin-3-yloxy)-[1,5]naphthyridine]	84	99			
COc1cc2nccc(Oc3ccc4c(c3)C(=O)c3ccccc3-4)c2cc1OC [Compound r19]					inhibition at 3 µM (TGFβ signal; [5]): 73%; inhibition at 10 µM (TGFβ signal; [6]): 95%
